Values of other authors, collected in patent publication US20240390359A1, “METHODS FOR THE TREATMENT AND PREVENTION OF NON-VIRAL TICK-BORNE DISEASES AND SYMPTOMS THEREOF” (priority 2023, published 2024).

What was measured:
Babesia microti = details: Mongolian jirds; primaquine given daily; cited from earlier work
P. falciparum [1] = details: 250 mg/day; cited from earlier work
P. falciparum [2] = details: 250 mg/day; cited from earlier work; remark: listed apart in the source
[3] = system: Trypanosome brucei blood stage forms; details: exposure for 90 minutes; cited from earlier work
[4] = system: various serovars of Leptospira; details: exposure for as little as 30 min; cited from earlier work
Babesia parasites = details: 100 microM for 2h, in vitro; cited from earlier work
[5] = system: Borrelia burgdoferi B31 5A18NP1 strain; details: 4 h; cited from earlier work
Treponema palludum = details: 50 or 100 microM for two hours in a 3% oxygen atmosphere; cited from earlier work
[6] = system: P. falciparum gametocytes; details: single dose combined with dihydroartemisinin/piperaquine; cited from earlier work
Pneumocystis = details: mice; cited from earlier work
Babesia = details: mice; cited from earlier work
[7] = in vivo; cited from earlier work
B. rodhaini [8] = details: single dose of 20 mg/kg; immunocompromised SCID mice; cited from earlier work
[9] = cited from earlier work
Plasmodium vivax = details: monotherapy 400 mg/day for three days, cited from earlier work
B. gibsoni = details: splenectomized dogs, cited from earlier work
[10] = system: free-living gram-negative and gram-positive bacteria; details: cited from earlier work
[11] = system: extracellular blood stage forms of Trypanosoma brucei; details: cited from earlier work
B. rodhaini [12] = details: cited from earlier work
[13] = system: blood stages of P. falciparum; details: in vivo; cited from earlier work
[14] = 600 mg over three days then 200 mg weekly for up to one year; cited from earlier work
Plasmodium falciparum = details: 600 mg loading dose followed by 200 mg; challenge three days after last dose; all control subjects developed parasitemia; cited from earlier work
B. microti = details: one patient, prior rituximab; tafenoquine as monotherapy for six weeks at approved malaria prevention dose; cited from earlier work
[15] = system: intracellular amastigote forms of Leishmania major; details: cited from earlier work
[16] = cited from earlier work; remark: listed apart in the source

Compound: COc1cc(NC(C)CCCN)c2nccc(C)c2c1 (centres unmarked) [4-methyl substituted primaquine]
- efficacy against Babesia microti (Babesia microti): more efficacious than primaquine

Compound: CC[C@H]1OC(=O)[C@H](C)[C@@H](O[C@H]2C[C@@](C)(OC)[C@@H](O)[C@H](C)O2)[C@H](C)[C@@H](O[C@@H]2O[C@H](C)C[C@H](N(C)C)[C@H]2O)[C@](C)(O)C[C@@H](C)CN(C)[C@H](C)[C@@H](O)[C@]1(C)O [Azithromycin]
- Protective Efficacy (%) Relative to Placebo, Pf/Semi-Immune (P. falciparum [1]): 83% (Anderson)
- Protective Efficacy (%) Relative to Placebo, PF/Non-immune or Malaria-naïve (P. falciparum [2]): 72% (Taylor)

Compound: OO [hydrogen peroxide]
- hydrogen peroxide concentration that killed blood stage forms [3]: approximately 140 microM
- exogenous hydrogen peroxide concentrations that killed [4]: < 180 µM
- killing of Babesia parasites (Babesia parasites): kills Babesia parasites in vitro
- lowest concentration that inhibited growth [5]: 62.5 µM
- growth (Treponema palludum): significantly inhibited

Compound: COc1cc(NC(C)CCCN)c2ncccc2c1 (centres unmarked) [primaquine]
- time until gametocyte infectivity statistically lower than reference values [6]: two days post-dosing
- cure of Pneumocystis infections (Pneumocystis): must be combined with clindamycin
- single dose that cleared Babesia parasitemia (Babesia): 100 mg/kg

Compound: COc1cc(C)c2c(Oc3cccc(C(F)(F)F)c3)c(OC)cc(NC(C)CCCN)c2n1 (centres unmarked) [tafenoquine, N (4)-[2,6-Dimethoxy-4-methyl-5-[3-(trifluoromethyl)phenoxy]quinolin-8-yl] pentane-1,4-diamine]
- half-life [7]: 14 days
- death (B. rodhaini [8]): delayed not prevent
- effect on QTC prolongation associated with chloroquine ([9]; coadministered with chloroquine): did not increase the QTC prolongation
- effect on QTC interval ([9]; doses of up to 1200 mg over three days): not found to increase the upper limit of 90% confidence interval of the QTC interval
- day by which all patients cleared blood stage parasites (Plasmodium vivax): ≤ 8 days
- relapses during the follow up period (Plasmodium vivax; patients with data available): no relapses
- parasitemia (B. gibsoni; 100 mg tablet (9-11.5 mg/kg) on Days 12, 19 and 48): sufficient to clear and cure
- symptoms of infections such as anorexia, elevated respiration and pulse (B. gibsoni): alleviated
- activity against gram-negative versus gram-positive bacteria [10]: much less active against free-living gram-negative bacteria than free-living gram-positive bacteria
- potency of killing [11]: < 4 µM
- formation of vacuoles in B. rodhaini blood stages (B. rodhaini [12]; single dose of 20 mg/kg in mice): induces the formation of large vacuoles
- parasitemia (B. rodhaini [12]; single dose of 20 mg/kg, Balb/c mice): cleared parasitemia
- survival (B. rodhaini [12]; single dose of 20 mg/kg, Balb/c mice, infection uniformly lethal in untreated animals): 100%
- antioxidant enzymes in B. rodhaini (B. rodhaini [12]; single dose treatment in mice): upregulated
- activity against the blood stages of P. falciparum [13]: quite effective
- overall rate of adverse events relative to placebo [14]: without increasing the overall rate of adverse events
- specific adverse events with increased risk [14]: gastrointestinal effects [mild to moderate] and cornea verticillata
- development of blood stage parasitemia after challenge (Plasmodium falciparum): none of the tafenoquine subjects did
- clinical outcome of babesiosis treatment (B. microti): the patient was cured
- single dose that cleared Babesia parasitemia (Babesia): 20 mg/kg
- potency of killing [15]: < 4 µM
- doses that may not be well tolerated ([16]; G6PD deficient subjects): ≥ 300 mg
- doses that may be well tolerated ([16]; G6PD normal adult subjects): up to 400 mg
- doses often not well tolerated ([16]; adult subjects regardless of G6PD status): above 400 mg
